From PMC2783186 (Journal of medicinal chemistry, 2009)

Experiments:
PAMPA permeability = format: in vitro ADME
TNAP [1] = target: T1, TNAP (Homo sapiens, UniProt P05186); conditions: cited from earlier work
T1 sequence (P05186 18-501 limits assumed): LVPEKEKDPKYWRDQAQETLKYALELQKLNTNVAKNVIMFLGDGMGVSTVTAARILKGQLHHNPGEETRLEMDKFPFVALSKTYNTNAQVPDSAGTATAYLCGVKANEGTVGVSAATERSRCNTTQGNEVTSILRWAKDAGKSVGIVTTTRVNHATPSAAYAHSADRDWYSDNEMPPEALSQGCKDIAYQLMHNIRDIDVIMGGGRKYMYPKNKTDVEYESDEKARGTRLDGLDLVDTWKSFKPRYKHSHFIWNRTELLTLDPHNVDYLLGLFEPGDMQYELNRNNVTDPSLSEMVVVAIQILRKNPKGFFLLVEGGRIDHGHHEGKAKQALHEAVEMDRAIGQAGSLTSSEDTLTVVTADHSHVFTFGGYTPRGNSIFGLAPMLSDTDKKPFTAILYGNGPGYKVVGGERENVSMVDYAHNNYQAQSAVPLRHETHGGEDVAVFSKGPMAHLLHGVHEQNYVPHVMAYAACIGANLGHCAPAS

TNAP [2] = target: T1, TNAP; test: TNAP luminescent assay; format: biochemical; conditions: relative to lead compound 1
[3] = test system: Cytochrome P450 2C19 (CYP2C19); conditions: ref PubChem database; cited from earlier work
PHOSPHO1 = target: T2, PHOSPHO1 (Homo sapiens, UniProt Q8TCT1); test: PHOSPHO1 counterscreen; format: biochemical; conditions: read-out: Inhibition of PHOSPHO1
T2 sequence (Q8TCT1 1-267): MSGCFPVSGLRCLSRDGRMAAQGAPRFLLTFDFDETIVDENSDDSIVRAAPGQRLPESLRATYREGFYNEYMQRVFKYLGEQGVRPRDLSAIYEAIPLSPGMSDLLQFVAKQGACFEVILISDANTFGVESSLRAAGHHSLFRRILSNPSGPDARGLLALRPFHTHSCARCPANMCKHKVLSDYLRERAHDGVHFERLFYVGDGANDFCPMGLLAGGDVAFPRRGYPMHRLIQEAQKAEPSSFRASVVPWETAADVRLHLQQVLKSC

PLAP = PLAP (Homo sapiens, UniProt P05187); test: PLAP luminescent assay; format: biochemical
PLAP, sequence (P05187 23-506 limits assumed): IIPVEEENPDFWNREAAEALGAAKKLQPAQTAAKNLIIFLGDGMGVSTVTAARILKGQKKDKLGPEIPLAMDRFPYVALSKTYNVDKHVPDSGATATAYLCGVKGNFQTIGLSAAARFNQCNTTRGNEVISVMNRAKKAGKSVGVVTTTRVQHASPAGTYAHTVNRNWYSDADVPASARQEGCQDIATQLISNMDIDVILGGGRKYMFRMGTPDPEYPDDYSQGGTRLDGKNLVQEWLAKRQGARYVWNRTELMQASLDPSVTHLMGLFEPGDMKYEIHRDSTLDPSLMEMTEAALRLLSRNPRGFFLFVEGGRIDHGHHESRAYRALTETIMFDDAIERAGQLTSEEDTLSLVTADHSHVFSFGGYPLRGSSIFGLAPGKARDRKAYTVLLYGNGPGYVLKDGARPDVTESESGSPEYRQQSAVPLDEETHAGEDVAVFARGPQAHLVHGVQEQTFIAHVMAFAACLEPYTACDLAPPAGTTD

Row | PAMPA (% FLUX) (PAMPA permeability) | TNAP inhibitory activity (in words) (TNAP [2]) | Compound | also measured
1 | 7 % FLUX | – | COc1ccc(C)cc1S(=O)(=O)Nc1cnc2ccccc2c1 [Compound 19, 2-Methoxy-5-methyl-N-(quinolin-3-yl)benzenesulfonamide] | –
2 | – | loss of activity | COc1ccc(OC)c(S(=O)(=O)Nc2ccc3ncccc3c2)c1 [Compound 13, 2,5-Dimethoxy-N-(quinolin-6-yl)benzenesulfonamide] | –
3 | – | abolished the inhibitory activity | COc1ccc(OC)c(NS(=O)(=O)c2cnc3ccccc3c2)c1 [Compound 16, N-(2,5-Dimethoxyphenyl)quinoline-3-sulfonamide] | –
4 | 54 % FLUX | – | COc1ccc(Br)cc1S(=O)(=O)Nc1cnc2ccccc2c1 [Compound 18, 5-Bromo-2-methoxy-N-(quinolin-3-yl)benzenesulfonamide] | –
5 | 58 % FLUX | – | COc1ccc(OC)c(S(=O)(=O)Nc2cnc3ccccc3c2)c1 [Compound 1, 2,5-Dimethoxy-N-(quinolin-3-yl)benzenesulfonamide] | Activity in Cytochrome P450 2C19 assay [3]: showed activity; inhibition at 10 µM (PHOSPHO1): < 7.4%; IC50 (PLAP): > 100 µM

Second part, the compound before the results:

Row | Compound | PAMPA (% FLUX) (PAMPA permeability) | TNAP inhibitory activity (in words) (TNAP [2]) | also measured
6 | NC(N)=NCCCC[C@H](N)C(=O)O [L-homoarginine] | – | – | Mode of inhibition versus phosphate-donor substrate (TNAP [1]): uncompetitive
7 | COc1ccc(OC)c(CNc2cnc3ccccc3c2)c1 [Compound 17] | – | abolished the inhibitory activity | –
8 | COc1cccc(S(=O)(=O)Nc2cnc3ccccc3c2)c1 [Compound 15, 3-Methoxy-N-(quinolin-3-yl)benzenesulfonamide] | – | dramatic loss of activity | –
9 | COc1ccc(OC)c(S(=O)(=O)Nc2ccc3ccccc3c2)c1 [Compound 12, 2,5-Dimethoxy-N-(naphthalen-2-yl)benzenesulfonamide] | – | loss of activity | –
10 | c1ccc([C@H]2CN3CCSC3=N2)cc1 [levamisole] | – | – | Mode of inhibition versus phosphate-donor substrate (TNAP [1]): uncompetitive
